# Reference: patent US20220087990A1, “APPLICATION OF RIFAMYCIN-QUINOLIZIDONE CONJUGATE MOLECULE AND PHARMACEUTICALLY ACCEPTABLE SALT THEREOF” (priority 2019, published 2022)
# Where two headings read alike, the source gives them in different places.
# Columns and labels:
# [1] = tested on: methicillin-resistant Staphylococcus aureus (MRSA) isolates; experiment: MIC measured by agar dilution method (CLSI); format: cell-based; details: for MIC: Staphylococcus aureus, MRSA
# Experimental: (§1) Spontaneous mutation and minimal inhibit concentration (MIC) tested by agar dilution method, the above compounds are respectively prepared into a stock solution (100X) with a concentration 100 times the highest final concentration in corresponding solvents and used on the same day. Before use, I is further diluted with DMSO; and oxacillin, rifampicin and levofloxacin are further diluted with water.
# (§2) Bacterial isolates: Staphylococcus aureus isolates are retrieved from the −80° C. storage room of Micromyx Culture Collection, thawed, plated onto Tryptic Soy Agar+5% sheep blood (Remel; Lenexa, Kans.), and then incubated aerobically at 35° C. overnight. S. aureus ATCC 29213 (MRSA; MMX 0100) was included during testing only for the purpose of quality control. Test Media: The isolates were tested in both the agar dilution MIC assay and the spontaneous mutation assay using Mueller-Hinton Agar (MHA; BD/BBL; Lot No. 6229829 & 4216798). Inocula of each isolate were suspended in cation-adjusted Mueller-Hinton Broth (CAMHB) (BD/BBL; Lot Nos. 5257869 & 6258541). Sodium chloride (Sigma-Aldrich; Lot No. SLBL0434V) was added to CAMHB at a final concentration of 2% when testing oxacillin. Dilutions of bacterial cell suspensions for the purpose of performing colony counts were also made in CAMHB.
# (§3) MIC measured by agar dilution method: according to the recommendation from the Clinical and Laboratory Standards Institute (CLSI), the MIC value is measured by the agar dilution method. […] Each test agent was combined with molten MHA agar (50-55° C.) at a ratio of 0.2 mL of 100× test agent to 19.8 mL agar in a sterile tube, mixed gently, and then poured into a sterile petri plate (BD Falcon). Plates were allowed to solidify at room temperature. A 0.5 McFarland standard bacterial suspension was prepared, diluted 1:10 in CAMHB, and transferred to the wells of a stainless steel replicator block before stamping onto plates containing drug, resulting in 10^4 CFU/spot. After allowing the inoculum to dry on the surface of the agar, the plates were inverted, incubated aerobically at 35° C. for 20-24 hr, and inspected for growth.
# [2] = tested on: Staphylococcus aureus ATCC 29213; experiment: MIC measured by agar dilution method, quality control strain; format: cell-based; details: strain 100, MSSA QC strain
# Experimental: as §1, §2, §3
# In parallel experiments, a standard bacterium suspension with a […] turbidity of 0.5 is prepared as a standard inoculum for agar dilution analysis (10^4 CFU/point). […] In this step, the broths and drugs used in the spontaneous mutation analysis are used to confirm that the concentration of the drug stock solution can inhibit the growth of the standard inoculum. The quality of the levofloxacin stock solution is controlled by a standard inoculum and levofloxacin of 8-0.008 μg/mL, and separate agar dilution analysis is performed. […]
# [3] = tested on: Staphylococcus aureus ATCC 29213; experiment: MIC measured by fluid broth microdilution method (quality control); format: cell-based; details: ATCC29213
# [4] = tested on: Staphylococcus aureus ATCC 29213; details: agar dilution; cited from earlier work
# [5] = strain 3085, LEV^S RIF^S, agar dilution
# [6] = strain 3090, LEV^R RIF^S, agar dilution
# [7] = strain 3094, LEV^R RIF^S, agar dilution
# [8] = strain 3098, LEV^S RIF^S, agar dilution
# [9] = strain 3265, LEV^R RIF^S, agar dilution
# [10] = strain 3266, LEVR RIFS, agar dilution
# [11] = strain 3270, LEV^R RIF^S, agar dilution
# [12] = strain 3271, LEV^R RIF^S, agar dilution
# [13] = strain 3277, LEV^S RIF^S, agar dilution
# [14] = strain 3278, LEV^S RIF^S, agar dilution
# [15] = strain 6312, LEV^R RIF^S, agar dilution
# [16] = strain 6313, LEV^R RIF^S, agar dilution
# [17] = strain 6315, LEV^R RIF^S, agar dilution
# [18] = strain 6498, LEV^R RIF^S, agar dilution
# [19] = strain 6501, LEV^R RIF^S, agar dilution
# [20] = strain 6505, LEV^R RIF^S, agar dilution
# [21] = strain 7771, LEV^R RIF^S, agar dilution
# [22] = strain 7772, LEV^S RIF^S, agar dilution
# [23] = strain 7773, LEV^R RIF^S, agar dilution
# [24] = strain 7774, LEV^R RIF^S, agar dilution
# [25] = strain 7775, LEV^R, agar dilution
Structure (SMILES),"MIC [1, 5]","MIC [1, 6]","MIC [1, 7]","MIC [1, 8]","MIC [1, 9]","MIC [1, 10]","MIC [1, 11]","MIC [1, 12]","MIC [1, 13]","MIC [1, 14]","MIC [1, 15]","MIC [1, 16]","MIC [1, 17]","MIC [1, 18]","MIC [1, 19]","MIC [1, 20]","MIC [1, 21]","MIC [1, 22]","MIC [1, 23]","MIC [1, 24]",also measured
C[C@H]1COc2c(N3CCN(C)CC3)c(F)cc3c(=O)c(C(=O)O)cn1c23 [Levofloxacin],0.25 µg/mL,32 µg/mL,> 64 µg/mL,0.25 µg/mL,64 µg/mL,64 µg/mL,4 µg/mL,4 µg/mL,0.25 µg/mL,0.25 µg/mL,16 µg/mL,16 µg/mL,> 64 µg/mL,8 µg/mL,8 µg/mL,4 µg/mL,> 64 µg/mL,0.25 µg/mL,8 µg/mL,> 64 µg/mL,"MIC ([1]; read-out: MIC over all strains under test): 0.25 to 64 µg/mL; MIC [1, 25]: 16 µg/mL; MIC [2]: 0.25 µg/mL; MIC [3]: 0.25 µg/mL"
Cc1onc(-c2ccccc2)c1C(=O)N[C@@H]1C(=O)N2[C@@H]1SC(C)(C)[C@@H]2C(=O)O [Oxacillin],> 8 µg/mL,> 8 µg/mL,> 8 µg/mL,> 8 µg/mL,> 8 µg/mL,> 8 µg/mL,> 8 µg/mL,> 8 µg/mL,> 8 µg/mL,> 8 µg/mL,> 8 µg/mL,> 8 µg/mL,> 8 µg/mL,> 8 µg/mL,> 8 µg/mL,> 8 µg/mL,> 8 µg/mL,> 8 µg/mL,> 8 µg/mL,> 8 µg/mL,"sensitivity of the strains (resistant / sensitive) [1]: resistant; MIC [1, 25]: > 8 µg/mL; MIC [2]: 0.25 µg/mL; MIC quality control range of CLSI [4]: 0.12 to 0.5 µg/mL"
